# Data published in US20230076803A1, “COMPOUND AND DRUG CONJUGATE, AND PREPARATION METHOD AND USE THEREOF” (priority 2019, published 2023).
# Where two headings read alike, the source gives them in different places.
# Tests used:
# HBsAg [1] = conditions: M-Tg HBV mice, 3 mg/kg subcutaneous single dose, period of up to 70 days
# Procedure: HBV transgenic mice: named as M-Tg HBV, purchased from the Animal Department of Shanghai Public Health Center. […] Hereinafter, the transgenic mice were sometimes abbreviated as M-Tg model mice;
# M-Tg HBV mice (purchased from the Animal Department of Shanghai Public Health Center) were used. […] The AAV virus used is rAAV8-1.3HBV, type D (ayw) virus, purchased from Beijing FivePlus Molecular Medicine Institute Co. Ltd., 1×10^12 viral genome (v.g.)/mL, Lot No. 2016123011. The AAV virus was diluted to 5×10^11 v.g./mL with sterilized PBS prior to the experiment. Each mouse was injected with 200 μL (that is, each mouse was injected with 1×10^11 v.g). […] Each conjugate was administered in the form of 0.2 mg/mL or 0.6 mg/mL (both calculated based on siRNA) in 0.9% aqueous sodium chloride solution, with an administration volume of 5 mL/kg mouse body weight; that is, the administration doses of each conjugate (calculated based on siRNA) were 1 mg/kg and 3 mg/kg. […] The blood was collected from mouse orbital venous plexus before administration and on day 7, 14, 21, 28, 35, 42, 49, 63, and 70 days after administration, and the serum HBsAg level was determined at each time point. […]
# The inhibition rate against HBsAg is calculated according to the following equation:
# wherein HBsAg content is expressed as the equivalents (UI) of HBsAg per millilitre (mL) of serum.
# HBsAg [2] = conditions: AAV-HBV low concentration model mice, 3 mg/kg subcutaneous single dose
# Procedure: The AAV-HBV low concentration model mice were used. After the animal models were successfully established, they were randomly divided into groups according to serum HBsAg content (five mice per group). […] The blank group was administered with only 5 mL/kg 1×PBS. Blood was collected from mouse orbital venous plexus before administration and on day 14, 28, 42, 56, 70, 84, 98, 112, 126, 140, 154, 168, 182, and 196 days after administration, and the serum HBsAg level was determined at each time point.
# About 100 μL orbital blood was taken each time, and no less than 20 NL serum was collected after centrifugation. The HBsAg content in serum was determined by using HBsAg CLIA kit (Autobio, CL0310) according to the instructions provided by the manufacturer.
# Normalized expression level of HBsAg=(HBsAg content after administration/HBsAg content before administration)×100%.
# [3] = SD rats, subcutaneous single dose 0.5 mg/kg and 1 mg/kg
# Procedure: In this Experimental Example, the rats in each experimental group (10 rats in each group, half male and half female) were administered with Conjugate 32 by subcutaneous injection respectively at a single dose of 1 mg/kg and 0.5 mg/kg of rat body weight. The plasma drug concentration and liver tissue drug concentration in rats at each time point were then measured.
# First, SD rats were randomly divided into groups according to the body weight and gender of the rat using the [sequence] version 7.2.0 data system, and then the conjugates were administered at the designed doses, respectively. All animals were dosed based on body weight and subcutaneously administered at a single doses of 1 and 0.5 mg/kg (provided in the form of 0.1 mg/mL and 0.05 mg/mL in 0.9% aqueous sodium chloride solution, with a volume of 10 mL/kg). The rat's whole blood was collected from the jugular vein before administration and 5 minutes (±30 seconds), 30 minutes (±1 minute), 1 hour (±2 minutes), 2 hours (±2 minutes), 6 hours (±5 minutes), 24 hours (±10 minutes), 48 hours (±20 minutes), 72 hours (±20 minutes), 120 hours (±30 minutes), and 168 hours (±30 minutes) after administration. […]
# The concentration of Conjugate 32 in rat plasma and liver tissue was quantitatively determined by HPLC-FLD (High Performance Liquid Fluorescence Chromatography) according to the following steps: […]
# HBV mRNA [4] = assay: Inhibition of HBV mRNA expression in liver of 44Bri mice, day 14 (Exp. Ex. 2-4); assay type: in vivo, HBV transgenic mice C57BL/6J-Tg(Alb1HBV)44Bri/J; conditions: 1 mg/kg subcutaneous single dose, day 14 after administration
# Source text: (§1) HBV transgenic mice C57BL/6J-Tg(Alb1HBV)44Bri/J: purchased from Department of Laboratory Animal Science, Peking University Health Science Center. Mice with S/COV >10 were selected before the experiment. Hereinafter, the transgenic mice were sometimes abbreviated as 44Bri model mice;
# In this experimental example, the inhibitory efficiency of Conjugate 32 on the expression level of HBV mRNA in HBV-transgenic mice C57BL/6J-Tg (A 1b1HBV) 44Bri/J was investigated.
# The HBV transgenic mice C57BL/6J-Tg (Alb1HBV) 44Bri/J used in this experimental example were purchased from the Department of Laboratory Animal Science, Peking University Health Science Center. […]
# For each mouse, 1 μg of total RNA was taken, and the extracted total RNA was reverse-transcribed into cDNA using ImProm-II™ reverse transcription kit (Promega Crop.) according to the instructions thereof to obtain a solution containing cDNA, and then the expression level of HBV mRNA in liver tissue was determined by the fluorescent quantitative PCR kit (Beijing Cowin Biosciences Co., Ltd.). In this fluorescent quantitative PCR method, R-actin gene was used as an internal control gene, and HBV and 3-actin were detected by using primers for HBV and β-actin, respectively. […]
# HBV mRNA [5] = assay: Inhibition of HBV mRNA expression in liver of 44Bri mice, day 7 (Exp. Ex. 2-6); assay type: in vivo, HBV transgenic mice C57BL/6J-Tg(Alb1HBV)44Bri/J; conditions: 1 mg/kg subcutaneous, day 7 after administration
# Source text: as §1
# In this experimental example, the inhibitory efficiency of different concentrations of Conjugate 32 on the expression level of HBV mRNA in HBV transgenic mice C57BL/6J-Tg (Alb1HBV) 44Bri/J was investigated. […]
# The expression level of HBV mRNA in the liver tissue of each mouse was determined by real-time fluorescent quantitative PCR. Specifically, the total RNA extracted from the liver tissue of each mouse was reverse-transcribed into cDNA using ImProm-II™ reverse transcription kit (Promega) according to the instructions thereof, and then the expression level of HBV mRNA in liver tissue was determined by the fluorescent quantitative PCR kit (Beijing Cowin Biosciences Co., Ltd.) and the inhibitory efficiency was calculated. In this fluorescent quantitative PCR method, GAPDH gene was used as an internal control gene, and the HBV and GAPDH were detected by using the primers for HBV and GAPDH, respectively. […]
# HBV DNA = assay: Time course of serum HBV DNA in AAV-HBV low concentration model mice (Exp. Ex. 2-7); assay type: in vivo; conditions: 3 mg/kg subcutaneous single dose
# Source text: (§2) The AAV-HBV low concentration model mice were used.
# Normalized expression level of HBV DNA=(HBV DNA content after administration/HBV DNA content before administration)×100%.
# HBV mRNA [6] = assay: Inhibition of HBV mRNA on day 70 (Exp. Ex. 2-7, FIG. 9); assay type: in vivo, AAV-HBV low concentration model mice; conditions: 1 mg/kg or 3 mg/kg, day 70 after administration
# Procedure: as §2
# In a further experiment, the inhibitory effect on HBV mRNA on day 70 was tested according to the detection method of Example 6 above, and the results are shown in FIG. 9.
# [7] = 90% cynomolgus monkey plasma, 37° C., period of up to 72 hours
# Procedure: Therein, 0 hour is the time when 10 μL of the mixed solution was taken immediately after the conjugate solution was mixed well with 90% cynomolgus monkey plasma. After sampling at each time point, each mixed solution was diluted 5-fold with 1×PBS (pH7.4), and 10 μL of each diluted mixed solution was taken for electrophoresis.
# 20 wt % of non-denatured polyacrylamide gel was prepared. The samples for electrophoresis in each group of the above diluted samples were mixed with 4 μL of loading buffer (20 mM EDTA, 36 wt % glycerol, and 0.06 wt % aqueous solution of bromophenol blue) and loaded into each gel well for electrophoresis under 80 mA constant current for 60 minutes. After electrophoresis, the gel was stained with 1×Sybr Gold dye (Invitrogen, Cat. 11494) for 15 minutes and imaged.
substance,measurement,setting,value
"Conjugate 32: siRNA conjugate, S SEQ ID NO 367, AS SEQ ID NO 368, Table 2A; conjugated via Compound N-62 (sense CCUUGAGGCAUACUUCAAA; antisense UUUGAAGUAUGCCUCAAGGUU; conjugated via Compound N-62, position not given here)",inhibition rate against serum HBsAg,HBsAg [1],up to 97.80%
same,inhibition rate against serum HBsAg,HBsAg [2],up to 90.9%
same,concentration in rat plasma over time,[3],rapidly decreased to below detection limit within a few hours
same,time for which the concentration in liver tissue maintained a higher and stable level,[3],at least 150 hours
same,inhibition rate against HBV mRNA in liver tissue,HBV mRNA [4],up to 89.86%
same,inhibition rate against HBV mRNA in liver tissue,HBV mRNA [5],up to 91.96%
same,inhibition rate against HBV DNA in serum,HBV DNA,up to 85.7%
same,inhibitory effect on HBV mRNA on day 70,HBV mRNA [6],can still inhibit the expression level of HBV mRNA to a certain extent
same,stability in cynomolgus monkey plasma in vitro (semiquantitative),[7],remain undegraded
